PMC7731314, “Tropinone-Derived Alkaloids as Potent Anticancer Agents: Synthesis, Tyrosinase Inhibition, Mechanism of Action, DFT Calculation, and Molecular Docking Studies” (International Journal of Molecular Sciences, 2020)
Like-named read-outs stand apart in the source and are kept apart here.

Columns and labels:
[1] = system: mouse skin melanoma (B16-F10) cell line; test: MTT cell proliferation assay, B16-F10; assay type: cell-based; details: read-out: IC50 ± SD B16-F10
Excerpt: (§1) The influence of the tested compounds on the proliferation of melanoma B16F10 and breast MDA-MB-231 cells was estimated with the MTT assay as described previously. The cells counted using an automated cell counter (Countess® II FL, Invitrogen by Thermo Fisher Scientific Inc., Waltham, MA USA) and plated in 96-well plates (Nunc Edge 2F, Thermo Fisher Scientific Inc.) at a density of 0.1 × 10^4 and 0.2 × 10^4 per well, respectively. A total of twenty-four hours later, drugs were applied with final concentration: 5, 0.5, 0.05, and 0.005 μg/mL, and after an additional seventy-two hours MTT staining was performed as follows: twenty microliters of 5 mg/mL MTT solution and was added to each well of 96-well plate incubated for 2 h. Subsequently, the medium was removed and crystals of formazan were solubilized in pure isopropanol. Absorbance readout was conducted immediately using plate reader Multiskan Spectrum at 570 nm (Thermo Electron Corporation, Waltham, MA, USA). The background optical density was measured in the wells filled with culture medium, without the cells. The biological evaluation was performed as three independent experiments. The IC50 values were calculated using ED50plus v 1.0 freeware software and the mean response and standard deviation were calculated using Excel software. All of the chemicals were obtained from Sigma-Aldrich.

[2] = system: human normal skin fibroblasts (HSF)
Procedure: (§3) The human normal skin fibroblasts, i.e., the HSF cell line, were a laboratory strain obtained with the outgrowth technique from skin explants from young volunteers (with subjects’ written informed consent). […] The CCD18-Co cells were grown in Eagle Medium (Sigma-Aldrich, St. Louis, MO, USA) supplemented with 2 mM L-glutamine (Sigma-Aldrich) and 1mM sodium pyruvate (Sigma-Aldrich, St. Louis, MO, USA), 10% FBS, (without antibiotics). HSF were cultured in a 1:1 mixture of Dulbecco’s modified Eagle Medium and Eagle Medium (Sigma-Aldrich) containing 10% FBS, 100 units/mL of penicillin, and 100 mg/mL of streptomycin. […] All cell lines were cultured in a humidified 5% CO2 atmosphere at a temperature of 37 °C. A stock solution of each tested compound was made in dimethylsulfoxide (DMSO; Sigma-Aldrich) and stored at 4 °C until use. The drug was diluted in an appropriate culture medium immediately before use.
(§4) The influence of the tested compounds on normal cell viability was estimated with the MTT assay. The CCD-18Co and HSF cells were seeded in 96-well microplates at a density of 1 × 10^5 cells/mL in complete growth medium. The next day, the medium was replaced with a fresh one containing 2% FBS (growth restriction) and the cells were exposed to each tested compound (3.156–100 µM) to study the acute toxicity in vitro. After 24-h incubation, the medium was removed and the cells were incubated for 3 h with an MTT solution; next, formazan crystals were solubilized overnight by adding SDS buffer and absorbance was determined at a wavelength of 570 nm using an EL800 Microplate Reader (BioTek Instruments, Winooski, VT, USA). The absorbance of the control wells was taken as 100% and the cell viability was expressed as a percentage of the control. CC50 values, defined as concentrations of the compounds necessary to reduce cell viability by 50%, were calculated from nonlinear regression (log(inhibitor) vs. normalized response-variable slope) using GraphPad Prism 5.0.

[3] = system: human breast adenocarcinoma (MDA-MB-231) cell line; test: MTT cell proliferation assay, MDA-MB-231; assay type: cell-based; details: read-out: IC50 ± SD MDA-MB-231
Excerpt: as §1

[4] = system: human multiple myeloma (RPMI 8226) cell line; test: MTT cell proliferation assay, RPMI 8226; assay type: cell-based; details: antiproliferative, 96 h, read-out: IC50 ± SD RPMI 8226
Procedure: (§2) The influence of the tested compounds on the proliferation of RPMI 8226 and A549 cells was estimated with the MTT assay as described previously. Briefly, 1 × 10^4 cells/mL (RPMI 8226) or 0.2 × 10^4 (A549) cells per well were seeded into 96-well plates and cultured (in growth medium containing 10% FBS) with different concentrations of each compound ranging from 3.125 to 100 μM. The control cells were treated with the vehicle DMSO (0.1%).

[5] = system: human normal colon fibroblasts (CCD-18Co)
Procedure: as §3, §4

[6] = in vitro; details: human
Procedure: as §3, §4

[7] = target: mushroom tyrosinase (Agaricus bisporus, UniProt C7FF04); test: Kinetic analysis of the inhibition of tyrosinase (Lineweaver-Burk); assay type: biochemical; details: tyrosinase-catalyzed oxidation of L-DOPA
Procedure: To understand the mechanism of mushroom tyrosinase inhibition by new compounds 3a–3h, enzyme inhibition kinetic studies were performed. The mechanism of tyrosinase inhibition was determined using Lineweaver–Burk plot, which is a useful graphical method for analysis of the Michaelis–Menten equations used to determine the inhibition constant […].
A series of experiments were performed to determine the inhibition kinetics of compounds by following the already reported method. The inhibitor concentrations for compounds were 50 and 100 µM. Substrate L-DOPA concentration was between 100 and 250 µM in all kinetic studies. Maximal initial velocity was determined from the initial linear portion of absorbance up to ten minutes after addition of enzyme. The inhibition type of the enzyme, Michaelis constant (KM) and maximal velocity (Vmax) were determined by Lineweaver–Burk plots of inverse of velocities (1/V) versus inverse of substrate concentration 1/[L-DOPA] mM^−1.

[8] = system: human lung carcinoma (A549) cell line; test: MTT cell proliferation assay, A549; assay type: cell-based; details: antiproliferative, 96 h, read-out: IC50 ± SD A549
Procedure: as §2

[9] = in vitro
Procedure: as §3, §4

[10] = B16-F10, antiproliferative, MTT, 72 h
[11] = MDA-MB-231, antiproliferative, MTT, 72 h

Chain of mushroom tyrosinase (C7FF04 1-392): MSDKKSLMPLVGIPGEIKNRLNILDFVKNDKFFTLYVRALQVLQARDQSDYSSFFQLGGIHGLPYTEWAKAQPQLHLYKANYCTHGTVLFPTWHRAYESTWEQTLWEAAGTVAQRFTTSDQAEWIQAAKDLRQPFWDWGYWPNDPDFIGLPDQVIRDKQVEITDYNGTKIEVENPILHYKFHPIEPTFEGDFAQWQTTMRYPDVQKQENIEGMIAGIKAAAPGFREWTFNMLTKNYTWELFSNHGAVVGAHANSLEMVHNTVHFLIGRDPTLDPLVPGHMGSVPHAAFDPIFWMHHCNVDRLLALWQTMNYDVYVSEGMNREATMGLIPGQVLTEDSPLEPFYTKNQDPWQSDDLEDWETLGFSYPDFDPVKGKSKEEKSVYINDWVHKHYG

For CN1C2CCC1CC(=NNc1nc(-c3ccc(N)cc3)cs1)C2 [Compound 3e, 4-[2-[2-(8-Methyl-8-azabicyclo[3.2.1]oct-3-ylidene)hydrazinyl]-1,3-thiazol-4-yl]aniline], the IC50 [1, 10] was 2.68 ± 0.4 µM, the “CC50 ± SD HSF” value [2] was “no toxicity” and the IC50 [3, 11] was 2.81 ± 0.12 µM. The melting point was 85 to 87 °C, the IC50 [4] was 67 ± 7.14 µM and the “CC50 ± SD CCD-18Co” value [5] was “no toxicity”. For the same compound, the CC50 at 24 h [6] was over 100 µM, the “Inhibitory Mechanism” value [7] was “mixed” and the IC50 [8] was 263 ± 105 µM. It also gave a CC50 at 24 h [9] of over 100 µM.
For CN1C2CCC1CC(=NNc1nc(-c3cc4ccccc4oc3=O)cs1)C2 [Compound 3g, 3-[2-[2-(8-Methyl-8-azabicyclo[3.2.1]oct-3-ylidene)hydrazinyl]-1,3-thiazol-4-yl]-2H-chromen-2-one], the IC50 [1, 10] was 3 ± 0.26 µM, the IC50 [3, 11] was 2.83 ± 0.06 µM and the melting point was 110 to 113 °C. For the same compound, the IC50 [4] was 23.2 ± 4.52 µM, the CC50 at 24 h [6] was 42.6 ± 5.89 µM and the “Inhibitory Mechanism” value [7] was “mixed”. It also gave an IC50 [8] of 29.3 ± 3.98 µM and a CC50 at 24 h [9] of 35.3 ± 5.52 µM.
With CN1C2CCC1CC(=NNc1nc(-c3ccc(NS(C)(=O)=O)cc3)cs1)C2 [Compound 3f, N-(4-[2-[2-(8-Methyl-8-azabicyclo[3.2.1]oct-3-ylidene)hydrazinyl]-1,3-thiazol-4-yl]phenyl)methane-sulfonamide] the IC50 [1, 10] was 2.14 ± 0.23 µM, the “CC50 ± SD HSF” value [2] was “weak” and the IC50 [3, 11] was 2.48 ± 0.08 µM. For the same compound, the melting point was 98 to 100 °C, the IC50 [4] was 107 ± 7.22 µM and the “CC50 ± SD CCD-18Co” value [5] was “no toxicity”. The CC50 at 24 h [6] was over 100 µM, the “Inhibitory Mechanism” value [7] was “mixed” and the IC50 [8] was 117 ± 22.8 µM. For the same compound, the CC50 at 24 h [9] was 98.7 ± 4.16 µM.
For CN1C2CCC1CC(=NNc1nc(-c3ccc([N+](=O)[O-])cc3)cs1)C2 [Compound 3d, 4-(4-Nitrophenyl)-2-(2-(8-methyl-8-azabicyclo[3.2.1]octan-3-ylidene)hydrazinyl)thiazole], the IC50 [1, 10] was 1.91 ± 0.04 µM, the IC50 [3, 11] was 2.44 ± 0.14 µM and the melting point was 99 to 101 °C. The IC50 [4] was 17.9 ± 1.78 µM, the “Inhibitory Mechanism” value [7] was “mixed” and the IC50 [8] was 31 ± 4.62 µM.
Compound O=C(O)CCCc1ccc(N(CCCl)CCCl)cc1 [Chlorambucil, reference compound] has an IC50 ([1]; B16-F10, 72 h) of 2.92 ± 0.1 µM and an IC50 ([3]; MDA-MB-231, 72 h) of 4.71 ± 0.5 µM.
In the case of CC(=O)Nc1ccc(-c2csc(NN=C3CC4CCC(C3)N4C)n2)cc1 [Compound 3h, N-(4-[2-[2-(8-Methyl-8-azabicyclo[3.2.1]oct-3-ylidene)hydrazinyl]-1,3-thiazol-4-yl]phenyl)acetamide], the IC50 [1, 10] is reported as 3.03 ± 0.18 µM, the “CC50 ± SD HSF” value [2] is reported as “no toxicity” and the IC50 [3, 11] is reported as 2.9 ± 0.25 µM. The melting point was 97 to 99 °C, the IC50 [4] was 108 ± 4.8 µM and the “CC50 ± SD CCD-18Co” value [5] was “no toxicity”. The CC50 at 24 h [6] was over 100 µM, the “Inhibitory Mechanism” value [7] was “mixed” and the IC50 [8] was 189 ± 33 µM. It also gave a CC50 at 24 h [9] of over 100 µM.
CN1C2CCC1CC(=NNc1nc(-c3ccc(C#N)cc3)cs1)C2 [Compound 3c, 4-[2-[2-(8-Methyl-8-azabicyclo[3.2.1]oct-3-ylidene)hydrazinyl]-1,3-thiazol-4-yl]benzonitrile] gave an IC50 [1, 10] of 1.52 ± 0.13 µM, an IC50 [3, 11] of 2.7 ± 0.14 µM and a melting point of 90 to 92 °C. The IC50 [4] was 31.7 ± 2.77 µM, the “Inhibitory Mechanism” value [7] was “mixed” and the IC50 [8] was 74.9 ± 7.65 µM.
Compound COc1ccc(-c2csc(NN=C3CC4CCC(C3)N4C)n2)cc1 [Compound 3b, 4-(4-Methoxyphenyl)-2-(2-(8-methyl-8-azabicyclo[3.2.1]octan-3-ylidene)hydrazinyl)thiazole] has an IC50 [1, 10] of 2.2 ± 0.04 µM, an IC50 [3, 11] of 2.53 ± 0.07 µM and a melting point of 91 to 93 °C. The IC50 [4] was 42.2 ± 4.55 µM, the “Inhibitory Mechanism” value [7] was “mixed” and the IC50 [8] was 133 ± 25.1 µM.
